# Assay results published in patent US20150299721A1, “BIOMASS PRODUCTION INCREASING GENE AND TRANSGENIC PLANT USING SAME” (POSTECH ACADEMY-INDUSTRY FOUNDATION, priority 2012, published 2015).
# Tested on: BAT1 gene-overexpressing plant
# Test: Restoring of hypocotyl height of BAT1 gene-overexpressing plant by brassinosteroid in the medium
# Assay type: in vivo, Arabidopsis thaliana
# Details: brassinosteroid added at 0.3 μM or 3 μM to 0.5x B5 medium, measured after 7 days (FIG. 5A)
# Experimental: The wild type and the BAT1 gene-overexpressing plant were vertically grown in a greenhouse whose temperature was regulated at about 23° C. under a long-day condition having a 24-hour period of 16-hour light condition/8-hour dark condition in 0.5× B5 media. A hypocotyl of the vertical-grown plant was distinctively shown in the BAT1 gene-overexpressing plant. Various brassinosteroids were treated at various concentrations, and a height of the hypocotyl was measured after 7 days. As the brassinosteroid, brassinolide (BL), castasterone (CS), teasterone (TE), or typhasterol (TY) was added at a concentration of 0.3 μM or 3 μM to the medium.
row,Structure (SMILES),length (height) of hypocotyl
1,CC(C)[C@H](C)[C@@H](O)[C@H](O)[C@@H](C)[C@H]1CC[C@H]2[C@@H]3COC(=O)[C@H]4C[C@H](O)[C@H](O)C[C@]4(C)[C@H]3CC[C@]12C [brassinolide],significantly increased
2,CC(C)[C@H](C)[C@@H](O)[C@H](O)[C@@H](C)[C@H]1CC[C@H]2[C@@H]3CC(=O)[C@H]4C[C@H](O)[C@H](O)C[C@]4(C)[C@H]3CC[C@]12C [castasterone],significantly increased
3,CC(C)[C@H](C)[C@@H](O)[C@H](O)[C@@H](C)[C@H]1CC[C@H]2[C@@H]3CC(=O)[C@H]4C[C@H](O)CC[C@]4(C)[C@H]3CC[C@]12C [typhasterol],significantly increased
